Key:
[1] = tested on: R277E mutant of ArfA-c(D236A); assay type: binding, M. tuberculosis
ArfA-c(D236A) = assay type: binding, M. tuberculosis; conditions: pH 7

Question: How did the “changes in the NMR spectrum of the R277E mutant” value [1] turn out when “uridine-5'-diphosphate–MurNAc–L-Ala–D-γ-Glu–m-DAP–D-Ala– D-Ala [UMDP]” was run?
Answer: The value was “no changes were observed”.

Question: And the “peak changes in 1H/15N NMR spectrum on addition of peptide” value (ArfA-c(D236A))?
Answer: The value was “several peak frequency and intensity changes”.
